Measured values published in patent US20260166122A1, “USE OF MICROPEPTIDE MIAC” (NANJING ANJI BIOTECHNOLOGY CO., LTD, priority 2023, published 2026).
Read-outs that look alike come from different tables or passages of the source. Marks after values point to notes of the source that are not given here. Ends that are not written are not given here.

Columns and labels:
[1] = tested on: human bladder cancer cells EJ; format: cell-based; conditions: 72 h
Protocol: (§1) Human pancreatic cancer, hepatocellular carcinoma, colorectal cancer, ovarian cancer, cervical cancer, bladder cancer, melanoma, glioblastoma, neuroblastoma, glioma, osteosarcoma, myeloma, lymphoma, hematologic malignancies, and cholangiocarcinoma cells were cultured in an incubator at 37° C. with 5% CO2 until the density reached 90%, then digested and collected with trypsin, resuspended in a culture medium, and counted under a microscope; the cell concentration was adjusted to about 1.0×10^5 cells/mL; and the cell suspension was inoculated into a 96-well plate, with 100 μL per well, and incubated overnight in an incubator at 37° C. with 5% CO2. After the cells were completely attached to the wall, 100 μL of micropeptides MIAC with concentrations of 50 μM, 100 μM and 200 μM were added to form an administration group; and a culture medium without any medicament was used as a negative control group. After continuing incubation for 72 h, 100 μL of CCK8 was added to each well of the 96-well plate for dissolving. The absorbance OD was measured at a detection wavelength of 450 nm with a microplate reader, and the proliferation inhibition (PI) was calculated using the formula of PI (%)=1-administration group/negative control group. The experiment was repeated 3 times independently, the results were expressed as Mean±SD, and a statistical T test was performed, where *P<0.05 indicated a significant difference and **P<0.01 indicated an extremely significant difference.

[2] = tested on: human cervical cancer cells Hela; format: cell-based; conditions: 72 h
Protocol: as §1

[3] = tested on: human osteogenic sarcoma cells Saos-2; format: cell-based; conditions: 72 h
Protocol: as §1

[4] = tested on: human esophageal carcinoma cells Eca-109; format: cell-based; conditions: 72 h
[5] = tested on: human breast cancer cells MX-1; format: cell-based; conditions: 72 h
[6] = tested on: human non-small cell lung cancer cells NCI-H1650; format: cell-based; conditions: 72 h
[7] = tested on: human lung giant cell carcinoma cells 95-D; format: cell-based; conditions: 72 h
osteosarcoma MG-63 cells = assay: transwell migration inhibition, MG-63; format: cell-based, human; conditions: 48 h
Protocol: (§2) Human prostate cancer, cervical cancer, osteosarcoma, ovarian cancer, melanoma, and hepatocellular carcinoma cells were inoculated into transwell chambers, with 100 μL per well; for an administration group, 100 μL of a micropeptide MIAC was added to each of the chambers at a different dose; and no medicament was added to a blank group. Then, 0.6 mL of a complete medium comprising 10% FBS was added to transwell lower chambers to stimulate cell migration, followed by incubation at 37° C. with 5% CO2 for 48 h. The culture medium in the wells was discarded, and the cells were fixed with methanol at room temperature for 30 min, stained with 0.1% crystal violet at room temperature for 10 min, and rinsed thoroughly with clear water; the unmigrated cells in the upper layer were wiped off with a cotton swab; and the migrated cells were observed under a microscope, and four visual fields were selected for photography and counting. The migration inhibition rate (MI) was calculated using the following formula: […]
(§3) where Ntest represents the number of migrated cells in the administration group, and Ncontrol represents the number of migrated cells in the blank control group.

[8] = tested on: ovarian cancer SKOV3 cells; assay: transwell migration inhibition, SKOV3; format: cell-based, human; conditions: 48 h
Protocol: as §2, §3

[9] = tested on: human hepatocellular carcinoma Hep3B cells; assay: subcutaneously transplanted Hep3B tumor in nude mice; format: in vivo, BALB/c nude mouse; conditions: Hep3B subcutaneous transplanted tumor, BALB/c nude mice, 5, 10, 15, 20 mg/kg; dose-dependent
Protocol: Human hepatocellular carcinoma Hep3B cells were cultured in large quantities and digested with a 0.25% trypsin solution; and the cell suspension after digestion termination was centrifuged at 1000 rpm for 5 minutes, and the cells were resuspended in a serum-free MEM medium and then counted to adjust the cell concentration to 5×10^7 cells/mL. Each BALB/c nude mouse (4-6 weeks old, female, weighing 14-16 g, adaptively housed in an SPF animal breeding room for 1 week) was inoculated with 100 μL of the cell suspension in the left axilla, with an inoculated cell amount of 5×10^6 cells. After inoculation, the tumor growth at the inoculation site of nude mice was closely observed. On the 7th day after inoculation, white nodules appeared at the inoculation site, which could be moved subcutaneously upon touch. As the tumor tissue grew, a hard tumor mass gradually formed at the inoculation site. […] The volume of the transplanted tumor was measured and recorded every two days, and the formula for calculating the tumor volume (TV) was: tumor volume=0.5×a×b^2, where a is the length (mm) of the transplanted tumor and b is the width (mm) of the transplanted tumor.

Sequence: MERAGVPGFSPRRSSVEAKMQSTSCSVRKSSTVTAWPAVVLLLSWGQRRGG [MIAC, micropeptide inhibiting actin cytoskeleton]
- OD ([1]; 50 μM): 1.126 ± 0.017
- OD ([1]; 100 μM): 0.891 ± 0.009**
- OD ([1]; 200 μM): 0.628 ± 0.045**
- OD ([2]; 50 μM): 0.954 ± 0.041**
- OD ([2]; 100 μM): 0.801 ± 0.039**
- OD ([2]; 200 μM): 0.532 ± 0.066**
- OD ([3]; Saos-2, 50 μM): 1.198 ± 0.067
- OD ([3]; Saos-2, 100 μM): 0.946 ± 0.016**
- OD ([3]; Saos-2, 200 μM): 0.627 ± 0.052**
- OD ([4]; Eca-109, 50 μM): 1.072 ± 0.037
- OD ([4]; Eca-109, 100 μM): 0.656 ± 0.045
- OD ([4]; Eca-109, 200 μM): 0.394 ± 0.039
- OD ([5]; MX-1, 50 μM): 1.020 ± 0.028
- OD ([5]; MX-1, 100 μM): 0.808 ± 0.102
- OD ([5]; MX-1, 200 μM): 0.630 ± 0.051
- OD ([6]; NCI-H1650, 50 μM): 1.127 ± 0.022
- OD ([6]; NCI-H1650, 100 μM): 0.955 ± 0.031
- OD ([6]; NCI-H1650, 200 μM): 0.779 ± 0.057
- OD ([7]; 50 μM): 1.188 ± 0.022
- OD ([7]; 100 μM): 0.863 ± 0.054
- OD ([7]; 200 μM): 0.341 ± 0.010
- Inhibition rate (%) (osteosarcoma MG-63 cells; MG-63, 3.125 μmol/L): 64.05%
- Number of migrated cells (osteosarcoma MG-63 cells; MG-63, 3.125 μmol/L): 129.5 ± 19.9
- Inhibition rate (%) (osteosarcoma MG-63 cells; MG-63, 6.25 μmol/L): 83.21%
- Number of migrated cells (osteosarcoma MG-63 cells; MG-63, 6.25 μmol/L): 60.5 ± 26.7
- Inhibition rate (%) (osteosarcoma MG-63 cells; MG-63, 12.5 μmol/L): 90.98%
- Number of migrated cells (osteosarcoma MG-63 cells; MG-63, 12.5 μmol/L): 32.5 ± 6.0
- Inhibition rate (%) (osteosarcoma MG-63 cells; MG-63, 25 μmol/L): 93.13%
- Number of migrated cells (osteosarcoma MG-63 cells; MG-63, 25 μmol/L): 24.8 ± 9.6
- Inhibition rate (%) ([8]; SKOV3, 12.5 μmol/L): 17.17%
- Number of migrated cells ([8]; SKOV3, 12.5 μmol/L): 907.3 ± 46.5
- Inhibition rate (%) ([8]; SKOV3, 25 μmol/L): 52.28%
- Number of migrated cells ([8]; SKOV3, 25 μmol/L): 523.8 ± 35.3
- Inhibition rate (%) ([8]; SKOV3, 50 μmol/L): 62.04%
- Number of migrated cells ([8]; SKOV3, 50 μmol/L): 415.8 ± 21.7
- in vivo tumor growth (tumor volume, tumor weight) versus blank control [9]: significantly inhibit the in vivo tumor growth
